The test system of the data set is human MDR1 P-gp. As to the kind of experiment: Assessment of efflux in MDCK cells transfected with the human MDR1 gene. Format: in vitro ADME, canine. To be noted: dog, pH 7.4, 37° C.; for Papp A→B: apical-to-basal, read-out: MDCK-PGP A-B; for efflux ratio: read-out: MDCK-PGP Efflux ratio [PEBA/PEAB]. As for the experimental part: Assessment of efflux in Madin-Darby canine kidney (MDCK) cells transfected with the human MDR1 gene to assess brain penetration (Drug Metabolism and Disposition February 2008, 36 (2) 268-275; DOI: https://doi.org/10.1124/dmd.107.017434)
Apparent permeability coefficients (PE) of the compounds across the MDCK-MDR1 cell monolayers are measured (pH 7.4, 37° C.) in apical-to-basal (AB) and basal-to-apical (BA) transport direction. AB permeability (PEAB) represents drug absorption from the blood into the 35 brain and BA permeability (PEBA) drug efflux from the brain back into the blood via both passive permeability as well as active transport mechanisms mediated by efflux and uptake transporters that are expressed on the MDCK-MDR1 cells, predominantly by the overexpressed human MDR1 P-gp. The compounds are assigned to permeability/absorption classes by comparison of the AB permeabilities with the AB permeabilities of reference compounds with known in vitro permeability and oral absorption in the human. Identical or similar permeabilities in both transport directions indicate passive permeation, vectorial permeability points to additional active transport mechanisms. Higher PEBA than PEAB indicates the involvement of active efflux mediated by MDR1 P-gp. Active transport is concentration-dependently saturable.
MDCK-MDR1 cells (1-2×10e5 cells/1 cm2 area) are seeded on filter inserts (Costar transwell polycarbonate or PET filters, 0.4 μm pore size) and cultured (DMEM) for 7 days. Subsequently, the MDR1 expression is boosted by culturing the cells with 5 mM sodium butyrate in full medium for 2 days. Compounds are dissolved in appropriate solvent (like DMSO, 1-20 mM stock solutions). Stock solutions are diluted with HTP-4 buffer (128.13 mM NaCl, 5.36 mM KCl, 1 mM MgSO4, 1.8 mM CaCl2, 4.17 mM NaHCO3, 1.19 mM Na2HPO4×7H2O, 0.41 mM NaH2PO4×H2O, 15 mM HEPES, 20 mM glucose, 0.25% BSA, pH 7.4) to prepare the transport solutions (0.1-300 μM compound, final DMSO <=0.5%). The transport solution (TL) is applied to the apical or basolateral donor side for measuring A-B or B-A permeability (3 filter replicates), respectively. The receiver side contains the same buffer as the donor side. Samples are collected at the start and end of experiment from the donor and at various time intervals for up to 2 hours also from the receiver side for concentration measurement by HPLC-MS/MS or scintillation counting. Sampled receiver volumes are replaced with fresh receiver solution.

Regarding `Cc1nnn(-c2ccc(C(F)F)cn2)c1COc1ccc(-c2ccc(=O)n(C)c2)nn1` [Example 1, 5-[6-({1-[5-(difluoromethyl)pyridin-2-yl]-4-methyl-1H-1,2,3-triazol-5-yl}methoxy)pyridazin-3-yl]-1-methyl-1,2-dihydropyridin-2-one], the Papp A→B was 31 ×10⁻⁶ cm/s and the efflux ratio was 1.8.
With `Cc1nnn(-c2ccc(C(F)F)cn2)c1COc1ccc(-c2cnc(N)nc2)nn1` [Example 2], the Papp A→B is 34 ×10⁻⁶ cm/s and the efflux ratio is 1.9.
Take `Cc1cc(-c2ccc(OCc3c(C)nnn3-c3ccc(C(F)F)cn3)nn2)cnn1` [Example 3]: the Papp A→B turned out to be 41 ×10⁻⁶ cm/s and the efflux ratio is 1.4.
As for `Cc1nnn(-c2ccc(C(F)F)cn2)c1COc1ccc(-c2cn[nH]c2)nn1` [Example 4], the Papp A→B is 57 ×10⁻⁶ cm/s and the efflux ratio was found to be 0.8.
In the case of `Cc1nnn(-c2ccc(C(F)F)cn2)c1COc1ccc(-c2ccc(C#N)s2)nn1` [Example 12], the Papp A→B was 51 ×10⁻⁶ cm/s and the efflux ratio worked out at 0.3.
`CNc1cccc(-c2ccc(OCc3c(C)nnn3-c3ccc(C(F)F)cn3)nn2)n1` [Example 14]: the Papp A→B worked out at 55 ×10⁻⁶ cm/s and the efflux ratio is 0.7.
Take `Cc1n[nH]c(C)c1-c1ccc(OCc2c(C)nnn2-c2ccc(C(F)F)cn2)nn1` [Example 15]: the Papp A→B is 17 ×10⁻⁶ cm/s and the efflux ratio amounted to 3.5.
Take `Cc1nnn(-c2ccc(C(F)F)cn2)c1COc1ccc(-c2ccc(S(C)(=O)=O)nc2)nn1` [Example 16]: the Papp A→B amounted to 59 ×10⁻⁶ cm/s and the efflux ratio is 0.6.
`Cc1nnn(-c2ccc(C(F)F)cn2)c1COc1ccc(-c2ccnnc2)nn1` [Example 17]: the Papp A→B worked out at 51 ×10⁻⁶ cm/s and the efflux ratio came out at 1.
With `Cc1ncc(-c2ccc(OCc3c(C)nnn3-c3ccc(C(F)F)cn3)nn2)o1` [Example 18], the Papp A→B came to 71 ×10⁻⁶ cm/s and the efflux ratio is 0.6.
As to `Cc1nnn(-c2ccc(C(F)F)cn2)c1COc1ccc(-c2ccc(N)nc2)nn1` [Example 19], the Papp A→B was found to be 41 ×10⁻⁶ cm/s and the efflux ratio amounted to 1.2.
Consider `Cc1nnn(-c2ccc(C(F)F)cn2)c1COc1ccc(-c2c[nH]c(=O)c(F)c2)nn1` [Example 20], for which the Papp A→B came out at 15 ×10⁻⁶ cm/s and the efflux ratio is 2.
Turning to `CCn1cc(-c2ccc(OCc3c(-c4ccc(C(F)F)cn4)nnn3C)nn2)cn1` [Example 22], the Papp A→B turned out to be 40 ×10⁻⁶ cm/s and the efflux ratio was 1.1.
The matching figures for `Cn1nnc(-c2ccc(C(F)F)cn2)c1COc1ccc(-c2cn[nH]c2)nn1` [Example 24]: 10 ×10⁻⁶ cm/s and 6.6.
Consider `Cn1nnc(-c2ccc(C(F)F)cn2)c1COc1ccc(-c2cccc(C(N)=O)c2)nn1` [Example 28], for which the Papp A→B turned out to be 3 ×10⁻⁶ cm/s and the efflux ratio turned out to be 17.2.
As for `Cc1nnn(-c2ccc(C(F)F)cn2)c1COc1ccc(-n2cc(C#N)cn2)nn1` [Example 37], the Papp A→B was found to be 59 ×10⁻⁶ cm/s and the efflux ratio worked out at 0.4.
On to `Cc1nnn(-c2ccc(C(F)F)cn2)c1COc1ccc(-n2ncnc2C)nn1` [Example 38], for which the Papp A→B came out at 86 ×10⁻⁶ cm/s and the efflux ratio amounted to 0.5.
The matching figures for `Cn1nnc(-c2ccc(C(F)F)cn2)c1COc1ccc(-c2cnccn2)nn1` [Example 39]: 59 ×10⁻⁶ cm/s and 0.6.
For `Cc1nnn(-c2ccc(C(F)F)cn2)c1COc1ccc(-n2cnc(C#N)c2)nn1` [Example 42, 1-[6-({1-[5-(difluoromethyl)pyridin-2-yl]-4-methyl-1H-1,2,3-triazol-5-yl}methoxy)pyridazin-3-yl]-1H-imidazole-4-carbonitrile], in that order: 24 ×10⁻⁶ cm/s and 1.4.
The matching figures for `Cc1nnn(-c2ccc(C(F)F)cn2)c1COc1ccc(-n2nccn2)nn1` [Example 43]: 54 ×10⁻⁶ cm/s and 0.7.
Regarding `Cc1ncnn1-c1ccc(OCc2c(-c3ccc(C(F)F)cn3)nnn2C)nn1` [Example 48, 3-({4-[5-(difluoromethyl)pyridin-2-yl]-1-methyl-1H-1,2,3-triazol-5-yl}methoxy)-6-(5-methyl-1H-1,2,4-triazol-1-yl)pyridazine], the Papp A→B amounted to 69 ×10⁻⁶ cm/s and the efflux ratio is 0.8.
For `Cn1nnc(-c2ccc(C(F)F)cn2)c1COc1ccc(-n2cnc(C#N)c2)nn1` [Example 52], in that order: 18 ×10⁻⁶ cm/s and 2.7.
As for `Cc1nnn(-c2ccc(C(F)F)cn2)c1COc1ccc(-c2cnccn2)nn1` [Example 56, 3-({1-[5-(difluoromethyl)pyridin-2-yl]-4-methyl-1H-1,2,3-triazol-5-yl}methoxy)-6-(pyrazin-2-yl)pyridazine], the Papp A→B worked out at 58 ×10⁻⁶ cm/s and the efflux ratio was found to be 0.6.

The record behind these values is patent publication US20230286946A1, “DIFLUOROMETHYL-PYRIDIN-2-YL TRIAZOLES” (Boehringer Ingelheim International GmbH, priority 2020, published 2023).
